In ChEMBL document CHEMBL2331379, “Synthesis of derivatives of methyl rosmarinate and their inhibitory activities against matrix metalloproteinase-1 (MMP-1)” (Eur J Med Chem, 2013):

Tests used:
Interstitial collagenase = molecular target: T1, Interstitial collagenase (Homo sapiens, UniProt P03956); test: Inhibition of human recombinant MMP1 catalytic domain using Dnp-Pro-beta-cyclohexyl-Ala-Gly-Cys(Me)-His-Lys-(Nma)-NH2 as substrate preincubated with enzyme for 30 mins prior to substrate addition monitored for 60 mins by fluorometric assay
T1 sequence (P03956 whole entry): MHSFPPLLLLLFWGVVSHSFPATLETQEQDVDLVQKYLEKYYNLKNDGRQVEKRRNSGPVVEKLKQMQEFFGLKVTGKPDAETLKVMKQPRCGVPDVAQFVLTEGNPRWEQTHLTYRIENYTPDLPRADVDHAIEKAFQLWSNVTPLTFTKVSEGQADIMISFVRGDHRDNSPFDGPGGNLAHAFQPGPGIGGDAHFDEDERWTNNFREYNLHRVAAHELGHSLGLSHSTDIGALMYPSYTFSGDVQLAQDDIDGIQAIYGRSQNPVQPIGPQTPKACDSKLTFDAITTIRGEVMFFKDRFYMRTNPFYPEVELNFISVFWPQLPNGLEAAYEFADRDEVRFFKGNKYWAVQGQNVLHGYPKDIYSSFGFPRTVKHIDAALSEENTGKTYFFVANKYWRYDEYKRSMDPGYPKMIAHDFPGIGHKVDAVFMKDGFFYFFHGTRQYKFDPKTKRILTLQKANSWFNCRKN

Collagenase 3 = Collagenase 3 (Homo sapiens, UniProt P45452); test: Inhibition of MMP13 (unknown origin)
[1] = molecular target: Macrophage metalloelastase (Homo sapiens, UniProt P39900); test: Inhibition of MMP12 (unknown origin)
Sequence of Macrophage metalloelastase (P39900 whole entry): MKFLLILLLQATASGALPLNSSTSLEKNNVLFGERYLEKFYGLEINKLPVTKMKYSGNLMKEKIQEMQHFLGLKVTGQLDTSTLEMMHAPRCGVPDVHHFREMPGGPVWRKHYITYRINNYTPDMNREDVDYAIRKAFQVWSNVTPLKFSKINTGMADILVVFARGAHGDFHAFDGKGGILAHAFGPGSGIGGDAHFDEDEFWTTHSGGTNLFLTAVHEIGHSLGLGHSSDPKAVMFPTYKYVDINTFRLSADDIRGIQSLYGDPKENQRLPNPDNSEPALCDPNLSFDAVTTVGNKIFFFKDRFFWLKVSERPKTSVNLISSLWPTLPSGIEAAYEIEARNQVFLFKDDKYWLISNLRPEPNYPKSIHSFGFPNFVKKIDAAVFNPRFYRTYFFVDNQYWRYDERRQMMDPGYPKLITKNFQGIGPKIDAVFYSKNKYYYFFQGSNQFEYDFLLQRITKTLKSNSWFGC

Stromelysin-1 = Stromelysin-1 (Homo sapiens, UniProt P08254); test: Inhibition of MMP3 (unknown origin)
Sequence of Stromelysin-1 (P08254 whole entry): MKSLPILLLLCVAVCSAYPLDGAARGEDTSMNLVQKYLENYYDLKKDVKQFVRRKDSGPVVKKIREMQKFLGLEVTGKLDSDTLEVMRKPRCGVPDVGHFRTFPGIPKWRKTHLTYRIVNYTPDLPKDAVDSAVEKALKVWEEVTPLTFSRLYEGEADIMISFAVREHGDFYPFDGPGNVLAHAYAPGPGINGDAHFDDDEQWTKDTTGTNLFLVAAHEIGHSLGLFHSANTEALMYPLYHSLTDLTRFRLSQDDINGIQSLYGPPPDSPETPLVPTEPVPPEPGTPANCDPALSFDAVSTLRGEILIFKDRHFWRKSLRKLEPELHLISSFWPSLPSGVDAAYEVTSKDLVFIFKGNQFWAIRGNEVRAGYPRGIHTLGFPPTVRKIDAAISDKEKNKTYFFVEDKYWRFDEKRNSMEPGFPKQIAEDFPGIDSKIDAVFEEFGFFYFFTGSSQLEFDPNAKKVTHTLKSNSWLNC

[2] = molecular target: Matrix metalloproteinase-9 (Homo sapiens, UniProt P14780); test: Inhibition of MMP9 (unknown origin)
Sequence of Matrix metalloproteinase-9 (P14780 whole entry): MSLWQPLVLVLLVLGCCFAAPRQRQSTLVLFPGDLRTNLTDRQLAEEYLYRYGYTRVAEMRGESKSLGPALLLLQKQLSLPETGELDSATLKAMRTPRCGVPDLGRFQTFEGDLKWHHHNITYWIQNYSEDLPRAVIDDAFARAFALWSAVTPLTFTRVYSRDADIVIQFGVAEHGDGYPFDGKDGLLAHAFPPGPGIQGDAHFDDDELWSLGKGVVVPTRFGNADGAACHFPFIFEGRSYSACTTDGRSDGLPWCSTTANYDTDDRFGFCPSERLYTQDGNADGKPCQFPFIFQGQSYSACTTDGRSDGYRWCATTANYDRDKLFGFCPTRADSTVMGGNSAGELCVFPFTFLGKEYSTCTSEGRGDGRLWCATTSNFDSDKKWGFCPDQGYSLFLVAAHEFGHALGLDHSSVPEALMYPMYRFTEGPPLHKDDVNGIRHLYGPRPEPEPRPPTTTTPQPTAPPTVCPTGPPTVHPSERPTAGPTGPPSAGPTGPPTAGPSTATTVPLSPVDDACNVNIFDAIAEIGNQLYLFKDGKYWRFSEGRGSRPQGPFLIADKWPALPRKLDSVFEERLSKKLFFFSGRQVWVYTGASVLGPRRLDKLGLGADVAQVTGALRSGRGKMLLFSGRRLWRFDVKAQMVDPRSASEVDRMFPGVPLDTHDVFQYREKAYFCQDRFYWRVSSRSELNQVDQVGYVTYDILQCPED

[3] = molecular target: 72 kDa type IV collagenase (Homo sapiens, UniProt P08253); test: Inhibition of MMP2 (unknown origin)
Sequence of 72 kDa type IV collagenase (P08253 whole entry): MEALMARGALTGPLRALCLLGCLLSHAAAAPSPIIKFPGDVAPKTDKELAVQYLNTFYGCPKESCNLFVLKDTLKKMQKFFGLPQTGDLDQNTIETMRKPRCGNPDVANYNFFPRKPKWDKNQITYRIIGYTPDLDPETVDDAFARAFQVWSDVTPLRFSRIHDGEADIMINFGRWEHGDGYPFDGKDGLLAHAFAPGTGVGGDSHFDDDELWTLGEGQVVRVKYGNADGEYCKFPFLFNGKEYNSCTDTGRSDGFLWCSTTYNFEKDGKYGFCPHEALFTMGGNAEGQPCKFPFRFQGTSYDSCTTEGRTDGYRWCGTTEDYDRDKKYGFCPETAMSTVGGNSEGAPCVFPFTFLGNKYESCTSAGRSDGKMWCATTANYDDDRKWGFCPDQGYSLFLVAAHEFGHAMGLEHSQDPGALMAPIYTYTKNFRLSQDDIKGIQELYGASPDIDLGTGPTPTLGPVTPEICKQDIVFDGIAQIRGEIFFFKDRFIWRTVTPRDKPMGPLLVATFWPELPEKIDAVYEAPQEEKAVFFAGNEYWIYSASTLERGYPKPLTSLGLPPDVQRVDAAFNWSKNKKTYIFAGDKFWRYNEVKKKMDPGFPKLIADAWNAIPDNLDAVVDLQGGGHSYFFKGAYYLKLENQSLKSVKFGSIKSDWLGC

Structure (SMILES)	IC50 (Interstitial collagenase)	also measured
COc1ccc(CC(OC(=O)/C=C/c2ccc3ccccc3c2)C(=O)O)cc1OC (stereo not given)	> 100 µM	
COc1ccc(/C=C/C(=O)OC(Cc2ccc(OC)c(OC)c2)C(=O)O)cc1OC (stereo not given)	> 100 µM	
C=CCOC(=O)C(Cc1ccc(OC)c(OC)c1)OC(=O)/C=C/c1ccc(C(F)(F)F)cc1 (stereo not given)	> 100 µM	
C=CCOC(=O)C(Cc1ccc(OC)c(OC)c1)OC(=O)/C=C/c1ccc(Cl)cc1 (stereo not given)	> 100 µM	
C=CCOC(=O)C(Cc1ccc(OC)c(OC)c1)OC(=O)/C=C/c1ccc(Br)cc1 (stereo not given)	> 100 µM	
COc1ccc(CC(OC(=O)/C=C/c2ccc(Cl)cc2)C(=O)O)cc1OC (stereo not given)	42.6 µM	
COc1ccc(CC(OC(=O)/C=C/c2ccc(C)cc2)C(=O)O)cc1OC (stereo not given)	> 100 µM	
COc1ccc(CC(OC(=O)/C=C/c2ccc3c(c2)OCC3)C(=O)O)cc1OC (stereo not given)	> 100 µM	
COc1ccc(/C=C/C(=O)OC(Cc2ccc(OC)c(OC)c2)C(=O)O)cc1 (stereo not given)	> 100 µM	
C=CCOC(=O)C(Cc1ccc(OC)c(OC)c1)OC(=O)/C=C/c1ccc(OCc2ccccc2)cc1 (stereo not given)	> 100 µM	
C=CCOC(=O)C(Cc1ccc(OC)c(OC)c1)OC(=O)/C=C/c1ccc([N+](=O)[O-])cc1 (stereo not given)	> 100 µM	
COc1ccc(CC(OC(=O)/C=C/c2ccccc2)C(=O)O)cc1OC (stereo not given)	53.7 µM	

Second part, led by results:

IC50 (Interstitial collagenase)	Structure (SMILES)	also measured
38.9 µM	COc1ccc(CC(OC(=O)/C=C/c2ccc(C(F)(F)F)cc2)C(=O)O)cc1OC (stereo not given)	
6.8 µM	COc1ccc(CC(OC(=O)/C=C/c2ccc3ccccc3c2)C(=O)NO)cc1OC (stereo not given)	
7.6 µM	COc1ccc(CC(OC(=O)/C=C/c2ccc(Br)cc2)C(=O)NO)cc1OC (stereo not given)	
5.6 µM	O=C(/C=C/c1ccc(O)c(O)c1)O[C@H](Cc1ccc(O)c(O)c1)C(=O)O [ROSMARINIC ACID]	
8.9 µM	COc1ccc(CC(OC(=O)/C=C/c2ccc(OCc3ccccc3)cc2)C(=O)O)cc1OC (stereo not given)	
4.2 µM	COc1ccc(CC(OC(=O)/C=C/c2ccc(OCc3ccccc3)c(OCc3ccccc3)c2)C(=O)NO)cc1OC (stereo not given)	
5.5 µM	COc1ccc(CC(OC(=O)/C=C/c2ccc(-c3ccccc3)cc2)C(=O)NO)cc1OC (stereo not given)	
10.7 µM	COc1ccc(CC(OC(=O)/C=C/c2ccc(Br)cc2)C(=O)O)cc1OC (stereo not given)	
0.8 µM	COc1ccc(C[C@H](OC(=O)/C=C/c2ccc(OCc3ccccc3)c(OCc3ccccc3)c2)C(=O)O)cc1OC	IC50 (Collagenase 3): 5.4 µM; IC50 [1]: 2300 nM; IC50 (Stromelysin-1): 3.4 µM; IC50 [2]: 6 µM; IC50 [3]: 3 µM
2.5 µM	COc1ccc(CC(OC(=O)/C=C/c2ccc(OCc3ccccc3)c(OCc3ccccc3)c2)C(=O)O)cc1OC (stereo not given)	
10.6 µM	COc1ccc(CC(OC(=O)/C=C/c2ccc3c(c2)OCC3)C(=O)NO)cc1OC (stereo not given)	
41.7 µM	COc1ccc(CC(OC(=O)/C=C/c2ccc(F)cc2)C(=O)O)cc1OC (stereo not given)	
13.7 µM	COc1ccc(CC(OC(=O)/C=C/c2ccc(O)c(O)c2)C(=O)O)cc1OC (stereo not given)	
3.6 µM	COc1ccc(CC(OC(=O)/C=C/c2ccc(OCc3ccccc3)cc2)C(=O)NO)cc1OC (stereo not given)	
8.6 µM	COc1ccc(CC(OC(=O)/C=C/c2ccc(-c3ccccc3)cc2)C(=O)O)cc1OC (stereo not given)	
38.5 µM	COc1ccc(CC(OC(=O)/C=C/c2ccc([N+](=O)[O-])cc2)C(=O)O)cc1OC (stereo not given)	
34.7 µM	COc1ccc(CC(OC(=O)/C=C/c2ccccc2F)C(=O)O)cc1OC (stereo not given)	
0.4 µM	COc1ccc(C[C@@H](OC(=O)/C=C/c2ccc(OCc3ccccc3)c(OCc3ccccc3)c2)C(=O)O)cc1OC	IC50 (Collagenase 3): 4.5 µM; IC50 [1]: 2100 nM; IC50 (Stromelysin-1): 4 µM; IC50 [2]: 6.7 µM; IC50 [3]: 3.2 µM
